Test results taken from publication PMC8842224 (Journal of Medicinal Chemistry, 2022).
Read-outs that look alike come from different tables or passages of the source.

Experiments:
human A2AAR = human A2AAR (Homo sapiens, UniProt P29274)
human A1AR = molecular target: T1, human A1AR (Homo sapiens, UniProt P30542)
T1 sequence (P30542 1-326): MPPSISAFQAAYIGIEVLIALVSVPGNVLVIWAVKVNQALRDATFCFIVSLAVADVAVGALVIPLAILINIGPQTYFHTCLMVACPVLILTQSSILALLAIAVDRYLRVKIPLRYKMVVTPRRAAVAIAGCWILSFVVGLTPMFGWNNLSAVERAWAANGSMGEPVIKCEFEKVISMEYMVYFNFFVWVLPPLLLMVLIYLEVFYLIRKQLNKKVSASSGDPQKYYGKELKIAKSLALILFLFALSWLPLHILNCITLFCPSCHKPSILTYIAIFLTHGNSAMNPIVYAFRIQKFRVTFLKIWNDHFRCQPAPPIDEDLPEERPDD

human A2BAR = molecular target: T2, human A2BAR (Homo sapiens, UniProt P29275); settings: read-out: hA2B Ki; displacement of specific [3H]DPCPX binding, human HEK-293 cells, ± SEM, n = 3
T2 sequence (P29275 1-332): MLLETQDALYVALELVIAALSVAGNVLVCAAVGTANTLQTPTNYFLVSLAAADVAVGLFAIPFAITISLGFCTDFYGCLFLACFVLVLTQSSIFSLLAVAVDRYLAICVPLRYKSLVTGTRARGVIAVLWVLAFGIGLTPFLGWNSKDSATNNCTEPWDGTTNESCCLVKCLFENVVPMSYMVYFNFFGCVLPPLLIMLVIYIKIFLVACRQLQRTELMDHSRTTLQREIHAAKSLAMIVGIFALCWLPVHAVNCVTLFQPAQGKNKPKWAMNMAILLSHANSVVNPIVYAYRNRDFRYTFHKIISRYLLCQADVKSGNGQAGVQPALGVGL

[1] = read-out: hA2A Ki, displacement of specific [3H]ZM241385 binding, human HeLa cells, ± SEM, n = 3
[2] = read-out: hA1 Ki, displacement of specific [3H]DPCPX binding, human CHO cells, ± SEM, n = 3
[3] = read-out: ki_a2a, supplementary csv, unit inferred

Chain of human A2AAR (P29274 whole entry): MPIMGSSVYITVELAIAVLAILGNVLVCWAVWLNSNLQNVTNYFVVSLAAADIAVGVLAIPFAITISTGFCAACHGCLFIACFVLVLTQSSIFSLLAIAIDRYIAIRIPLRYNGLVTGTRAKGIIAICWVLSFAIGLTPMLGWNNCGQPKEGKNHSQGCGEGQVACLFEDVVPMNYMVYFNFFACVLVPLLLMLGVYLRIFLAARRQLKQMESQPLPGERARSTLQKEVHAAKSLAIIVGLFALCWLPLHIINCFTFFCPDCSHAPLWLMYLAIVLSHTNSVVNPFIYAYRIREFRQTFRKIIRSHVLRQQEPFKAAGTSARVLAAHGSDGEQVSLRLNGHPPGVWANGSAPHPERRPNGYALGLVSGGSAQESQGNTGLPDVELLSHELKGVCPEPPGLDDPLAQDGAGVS

N#Cc1c(-c2ccccc2)nc(N)nc1-c1ccccc1 [18a]
Ki (human A2AAR; [1]): 0.0186 ± 0.0034 µM

N#Cc1c(-c2ccccc2)nc(N)nc1-c1ccsc1 [18aa]
Ki (human A1AR; [2]): 0.00525 ± 0.00216 µM | Ki (human A2AAR; [1]): 0.0206 ± 0.0027 µM

N#Cc1c(-c2ccccc2)nc(N)nc1-c1ccncc1 [18ab]
Ki (human A1AR; [2]): 0.216 ± 0.023 µM | Ki (human A1AR; read-out: ki_a1, supplementary csv, unit inferred): 0.216 µM | Ki (human A2AAR; [1]): 0.676 ± 0.027 µM | Ki (human A2AAR; [3]): 0.677 µM

N#Cc1c(-c2ccccc2)nc(N)nc1-c1cccnc1 [18ac]
Ki (human A1AR; [2]): 0.0196 ± 0.00147 µM | Ki (human A2AAR; [1]): 0.0364 ± 0.0057 µM

N#Cc1c(-c2ccccc2)nc(N)nc1-c1ccc2ccccc2c1 [18af]
Ki (human A1AR; [2]): 0.00827 ± 0.0021 µM | Ki (human A2AAR; [1]): 0.00578 ± 0.00116 µM

N#Cc1c(-c2ccccc2)nc(N)nc1-c1ccc(-c2ccccc2)cc1 [18ag]
Ki (human A1AR; [2]): 6.5 ± 0.451 µM

N#Cc1c(-c2cccc(Cl)c2)nc(N)nc1-c1cccc(Cl)c1 [18ah]
Ki (human A1AR; [2]): 0.00482 ± 0.00037 µM | Ki (human A2AAR; [1]): 0.0353 ± 0.0077 µM | Ki (human A2BAR): 0.0736 ± 0.0068 µM

N#Cc1c(-c2cccc(Cl)c2)nc(N)nc1-c1cc(Cl)cc(Cl)c1 [18ai]
Ki (human A1AR; [2]): 0.00781 ± 0.00143 µM | Ki (human A2AAR; [1]): 0.19 ± 0.022 µM

N#Cc1c(-c2cccc(Cl)c2)nc(N)nc1-c1ccc2c(c1)OCO2 [18aj]
Ki (human A1AR; [2]): 0.00561 ± 0.00074 µM | Ki (human A2AAR; [1]): 0.101 ± 0.015 µM | Ki (human A2AAR; [3]): 0.102 µM | Ki (human A2BAR): 0.386 ± 0.015 µM

N#Cc1c(-c2ccc(F)cc2)nc(N)nc1-c1ccc2c(c1)OCO2 [18ak]
Ki (human A1AR; [2]): 0.0125 ± 0.0023 µM | Ki (human A2AAR; [1]): 0.061 ± 0.0049 µM

COc1ccc(-c2nc(N)nc(-c3ccc(OC)cc3)c2C#N)cc1 [18al]
Ki (human A1AR; [2]): 0.0743 ± 0.0034 µM

N#Cc1c(-c2ccc(F)cc2)nc(N)nc1-c1ccco1 [18am]
Ki (human A1AR; [2]): 0.00908 ± 0.00116 µM | Ki (human A2AAR; [1]): 0.00572 ± 0.00026 µM | Ki (human A2BAR): 0.0139 ± 0.0037 µM

N#Cc1c(-c2ccccc2)nc(N)nc1-c1ccccc1F [18b]
Ki (human A1AR; [2]): 0.00644 ± 0.00125 µM | Ki (human A2AAR; [1]): 0.0176 ± 0.0028 µM

COc1ccccc1-c1nc(N)nc(-c2ccccc2)c1C#N [18d]
Ki (human A1AR; [2]): 0.0131 ± 0.0032 µM | Ki (human A2AAR; [1]): 0.0177 ± 0.0021 µM

N#Cc1c(-c2ccccc2)nc(N)nc1-c1cccc(F)c1 [18e]
Ki (human A1AR; [2]): 0.0134 ± 0.0041 µM | Ki (human A2AAR; [1]): 0.0195 ± 0.0033 µM | Ki (human A2BAR): 0.186 ± 0.011 µM

N#Cc1c(-c2ccccc2)nc(N)nc1-c1cccc(Cl)c1 [18f]
Ki (human A1AR; [2]): 0.00425 ± 0.0011 µM | Ki (human A2AAR; [1]): 0.0155 ± 0.0024 µM | Ki (human A2BAR): 0.177 ± 0.013 µM

COc1cccc(-c2nc(N)nc(-c3ccccc3)c2C#N)c1 [18g]
Ki (human A1AR; [2]): 0.00208 ± 0.00016 µM | Ki (human A2AAR; [1]): 0.00691 ± 0.00152 µM | Ki (human A2BAR): 0.0312 ± 0.0063 µM

N#Cc1c(-c2ccccc2)nc(N)nc1-c1cccc(O)c1 [18h]
Ki (human A1AR; [2]): 0.00149 ± 0.00043 µM | Ki (human A2AAR; [1]): 0.0102 ± 0.00352 µM | Ki (human A2BAR): 0.0501 ± 0.0082 µM

N#Cc1cccc(-c2nc(N)nc(-c3ccccc3)c2C#N)c1 [18i]
Ki (human A1AR; [2]): 0.00649 ± 0.00114 µM | Ki (human A2AAR; [1]): 0.0841 ± 0.0117 µM

N#Cc1c(-c2ccccc2)nc(N)nc1-c1ccc(F)cc1 [18j]
Ki (human A1AR; [2]): 0.00419 ± 0.00116 µM | Ki (human A2AAR; [1]): 0.0163 ± 0.0029 µM

N#Cc1c(-c2ccccc2)nc(N)nc1-c1ccc(Br)cc1 [18k]
Ki (human A1AR; [2]): 0.00919 ± 0.00281 µM | Ki (human A2AAR; [1]): 0.0219 ± 0.005 µM

COc1ccc(-c2nc(N)nc(-c3ccccc3)c2C#N)cc1 [18l]
Ki (human A1AR; [2]): 0.00716 ± 0.00203 µM | Ki (human A2AAR; [1]): 0.046 ± 0.0032 µM

N#Cc1c(-c2ccccc2)nc(N)nc1-c1ccc(O)cc1 [18m]
Ki (human A1AR; [2]): 0.00414 ± 0.00055 µM | Ki (human A2AAR; [1]): 0.0265 ± 0.0016 µM

Cc1ccc(-c2nc(N)nc(-c3ccccc3)c2C#N)cc1 [18n]
Ki (human A1AR; [2]): 0.00538 ± 0.00136 µM | Ki (human A2AAR; [1]): 0.00893 ± 0.00012 µM

N#Cc1c(-c2ccccc2)nc(N)nc1-c1ccc(F)cc1F [18o]
Ki (human A1AR; [2]): 0.004 ± 0.00182 µM | Ki (human A2AAR; [1]): 0.0155 ± 0.00221 µM

COc1ccc(-c2nc(N)nc(-c3ccccc3)c2C#N)c(OC)c1 [18q]
Ki (human A1AR; [2]): 0.00398 ± 0.00074 µM | Ki (human A2AAR; [1]): 0.0102 ± 0.00183 µM

N#Cc1c(-c2ccccc2)nc(N)nc1-c1cc(Cl)cc(Cl)c1 [18s]
Ki (human A1AR; [2]): 0.0159 ± 0.00211 µM | Ki (human A2AAR; [1]): 0.0954 ± 0.0165 µM

COc1cc(OC)cc(-c2nc(N)nc(-c3ccccc3)c2C#N)c1 [18t]
Ki (human A1AR; [2]): 0.00258 ± 0.00067 µM | Ki (human A2AAR; [1]): 0.00173 ± 0.00033 µM | Ki (human A2BAR): 0.0451 ± 0.0037 µM

N#Cc1c(-c2ccccc2)nc(N)nc1-c1ccc2c(c1)OCO2 [18u]
Ki (human A2AAR; [1]): 0.0102 ± 0.00109 µM | Ki (human A2BAR): 0.0433 ± 0.0042 µM

COc1cc(-c2nc(N)nc(-c3ccccc3)c2C#N)cc(OC)c1OC [18v]
Ki (human A1AR; [2]): 0.00258 ± 5e-05 µM | Ki (human A2AAR; [1]): 0.00095 ± 7e-05 µM

N#Cc1c(-c2ccccc2)nc(N)nc1-c1ccco1 [18x]
Ki (human A1AR; [2]): 0.0097 ± 0.0012 µM | Ki (human A2AAR; [1]): 0.0101 ± 0.0037 µM | Ki (human A2BAR): 0.0218 ± 0.0027 µM
